Literature values, collected in the CATMoS acute toxicity set (Mansouri et al. 2021).
“And” between values parts separate entries of the source, which are not always exact repeats. Equal values may be shown once.

Assay: rat acute oral toxicity
Details: in vivo
In the case of `CCOP(=S)(OCC)Oc1ccc(N)cc1`, the LD50 is listed as 450 mg/kg.
For `CCCCC(=O)OCC(=O)[C@H]1[C@H](C)C[C@H]2[C@@H]3C[C@H](F)C4=CC(=O)C=C[C@]4(C)[C@@]3(F)[C@@H](O)C[C@@]21C`, the LD50 is listed as 3100 mg/kg.
For `CCOP(=S)(OCC)Oc1ccc2c3c(c(=O)oc2c1)CCCC3`, the LD50 is given as 67 mg/kg.
For `CC(C)Nc1nc(Cl)nc(NC(C)C)n1`, the LD50 is given as 3840 mg/kg.
For `CC(C(=O)COC(=O)c1ccncc1)c1ccc(-c2ccccc2F)cc1` (stereo not drawn), the LD50 is listed as 1170 mg/kg.
For `CCCCOC(=S)S`, the LD50 is given as 456 mg/kg.
In the case of `CCN(C)CCC(CC=C(C)C)(C(N)=O)c1cccc2ccccc12` (stereo not drawn), the LD50 is given as 71 mg/kg.
In the case of `Cc1c(I)c(=O)n(-c2ccccc2)n1C`, the LD50 is given as 2060 mg/kg.
For `Cc1ncc(CS)c(CS)c1O`, the LD50 is listed as 549 mg/kg.
For `O=C(O)C(=O)C(O)=C(O)O`, the LD50 is given as 6000 mg/kg.
For `NC(=S)C1CC=CCC1` (stereo not drawn), the LD50 is listed as 50 mg/kg.
For `CCCCCCCCCCCCC(Br)C(=O)O` (stereo not drawn), the LD50 is given as 800 mg/kg.
For `OC1(c2cccc(Cl)c2)c2ccccc2C2=NCCN21` (stereo not drawn), the LD50 is given as 200 mg/kg.
In the case of `OCC(CO)N[C@H]1C[C@](O)(CO)[C@@H](O)[C@H](O)[C@H]1O`, the LD50 is given as 20000 mg/kg.
In the case of `O=C(COc1ccc(Cl)cc1Cl)OCC=CCCl`, the LD50 is given as 547 mg/kg.
In the case of `CCCC[P+](CCCC)(CCCC)Cc1ccc(Cl)cc1Cl`, the LD50 is given as 178 mg/kg.
For `ClCC=CCCl`, the LD50 is given as 89 mg/kg.
For `Cc1c(C(=O)O)nnn1-c1ccccc1`, the LD50 is given as 1500 mg/kg.
In the case of `CCC(CC)C(=O)OCC(Cl)(Cl)Cl`, the LD50 is listed as 900 mg/kg.
For `Cc1ncc(C[n+]2csc(CCO)c2C)c(N)n1`, the LD50 is given as 3710 mg/kg.
For `CN(C)CCC(c1ccc(Br)cc1)c1ccccn1` (stereo not drawn), the LD50 is listed as 318 mg/kg.
In the case of `COC(=O)c1c(Cl)c(Cl)c(C(=O)OC)c(Cl)c1Cl`, the LD50 is listed as 3000 mg/kg.
In the case of `CCN(CC)CCOc1ccccc1-n1c(C)ccc1-c1ccccc1`, the LD50 is given as 700 mg/kg.
For `C=C(/C=C/C)C1=C(C)CCCC1(C)C`, the LD50 is listed as 2920 mg/kg.
For `O=[N+]([O-])c1ccccc1O`, the LD50 is given as 334 mg/kg.
For `CCC1OCCSC1=NOC(=O)NC` (stereo not drawn), the LD50 is given as 19 mg/kg.
For `BrC/C=C/CBr`, the LD50 is listed as 62 mg/kg.
In the case of `CCCCCCCCc1ccc(C)cc1O`, the LD50 is listed as 4000 mg/kg.
In the case of `Cc1cccc(N2CC(CO)OC2=O)c1` (stereo not drawn), the LD50 is listed as 1220 mg/kg.
In the case of `C=C(C)C(=O)CC`, the LD50 is given as 419 mg/kg.
In the case of `CN(C)C(=S)SSC(=S)NCCNC(=S)SSC(=S)N(C)C`, the LD50 is listed as 3000 mg/kg.
In the case of `CC[C@@]1(O)C[N@@]2CC[C@H]1C[C@@H]2[C@@H](O)c1ccnc2ccc(OC)cc12`, the LD50 is listed as 600 mg/kg.
For `C/C=C1/C[C@@H](C)[C@](O)(CO)C(=O)OCC2=CC[N+]3([O-])CC[C@@H](OC1=O)[C@@H]23` (stereo partly drawn), the LD50 is listed as 48 mg/kg.
In the case of `CCOP(=O)(O)CCCl`, the LD50 is listed as 1250 mg/kg.
In the case of `CC1(C)CC(NCCC(=O)NC2CC(C)(C)NC(C)(C)C2)CC(C)(C)N1`, the LD50 is given as 4180 mg/kg.
For `CNCCCC1c2ccccc2CN(C)c2ccccc21` (stereo not drawn), the LD50 is given as 331 mg/kg.
For `O=[N+]([O-])c1ccc(O)c(CNCCO)c1`, the LD50 is listed as 23 mg/kg.
In the case of `CC(=O)c1ccc(O)cc1O`, the LD50 is listed as 2830 mg/kg.
In the case of `CC(C)=CCC/C(C)=C\CO`, the LD50 is given as 4500 mg/kg.
For `COc1ccc(Cc2nccc3cc(OC)c(OC)cc23)cc1OC`, the LD50 is given as 68.8 mg/kg.
For `CC(C)OC(=S)S`, the LD50 is given as 1700 mg/kg and 1250 mg/kg.
In the case of `N#CC(CCN1CCC(C(=O)O)(c2ccccc2)CC1)(c1ccccc1)c1ccccc1`, the LD50 is listed as 149 mg/kg.
For `O=C(O)c1nn(Cc2ccc(Cl)cc2Cl)c2ccccc12`, the LD50 is given as 1700 mg/kg.
In the case of `O=C(O)COc1ccc(Cl)cc1Cl`, the LD50 is listed as 405 mg/kg and 850 mg/kg.
For `Cn1c(=O)c2c(ncn2CC2SCCS2)n(C)c1=O`, the LD50 is given as 1840 mg/kg.
In the case of `CCOP(=O)(OCC)ON=C(C1CC1)C1CC1`, the LD50 is given as 7.85 mg/kg.
In the case of `CCC(O)CC`, the LD50 is given as 1870 mg/kg.
In the case of `Cc1cccc(C)c1NC(=O)CC12CCCN1CCC2`, the LD50 is given as 255 mg/kg.
In the case of `CCCCOC(=O)CC(C)=O`, the LD50 is listed as 11300 mg/kg.
For `CC1COC(C(Cl)(Cl)Cl)O1` (stereo not drawn), the LD50 is given as 380 mg/kg.
In the case of `Nc1c(Cl)cc(C(=O)NC2CC2)cc1Cl`, the LD50 is listed as 170 mg/kg.
For `CCCCC(CC)COC(CBr)c1ccc(Cl)c(Cl)c1` (stereo not drawn), the LD50 is listed as 250 mg/kg.
In the case of `CNCCc1ccccn1`, the LD50 is listed as 3030 mg/kg and 6110 mg/kg.
For `CN1C(=O)C2C=CC1c1ccccc12` (stereo not drawn), the LD50 is listed as 806 mg/kg.
For `CCOC(=S)C=Cc1cc(OC)c(OC)c(OC)c1`, the LD50 is listed as 1000 mg/kg.
In the case of `CCC1C(c2ccccc2)=CCC(C(=O)O)C1C` (stereo not drawn), the LD50 is given as 2350 mg/kg.
In the case of `CCN(CC)CCOc1ccc2c(c1)C(=O)c1cc(OCCN(CC)CC)ccc1-2`, the LD50 is listed as 852 mg/kg.
For `ClC(COCC(Cl)C(Cl)(Cl)Cl)C(Cl)(Cl)Cl` (stereo not drawn), the LD50 is given as 3630 mg/kg.
For `CCCCCCCCCCCCCCCC[n+]1ccccc1`, the LD50 is listed as 200 mg/kg and 475 mg/kg.
In the case of `C=CC[N@@+]12CC[C@@]34c5ccccc5N5C=C6[C@H]7C[C@H]8[C@@]9(CC[N@@+]8(CC=C)C/C7=C/CO)c7ccccc7N(C=C([C@@H](C[C@@H]31)/C(=C\CO)C2)[C@H]54)[C@@H]69`, the LD50 is given as 27.6 mg/kg.
In the case of `OC[C@H]1O[C@@H](O[C@@H]2[C@@H](CO)O[C@](O)(CO)[C@H]2O)[C@H](O)[C@@H](O)[C@H]1O`, the LD50 is given as 18200 mg/kg.
In the case of `CN1C(C(=O)Nc2nccs2)=C(O)c2ccccc2S1(=O)=O`, the LD50 is listed as 136 mg/kg.
In the case of `NNc1ccccc1`, the LD50 is listed as 188 mg/kg.
For `O=NN(c1cccc(C(F)(F)F)c1)c1ccccc1C(=O)O`, the LD50 is listed as 900 mg/kg.
For `CC=CC=CC#N`, the LD50 is given as 712 mg/kg.
In the case of `Nc1ccc2c(c1)C(=O)NC(CCCl)O2` (stereo not drawn), the LD50 is given as 1960 mg/kg.
For `FC(F)(F)c1nc2c(Cl)c(Br)c(Cl)cc2[nH]1`, the LD50 is listed as 8.78 mg/kg.
For `Oc1c(Cl)cc(Cl)c(Cl)c1Cl`, the LD50 is given as 140 mg/kg.
In the case of `CC(=O)CCc1ccc(O)cc1`, the LD50 is given as 1320 mg/kg.
For `CCc1cc(=O)c2ccccc2o1`, the LD50 is listed as 1400 mg/kg.
For `CC(C)(C)c1ccc(OP2OCC3(CO2)COP(Oc2ccc(C(C)(C)C)cc2C(C)(C)C)OC3)c(C(C)(C)C)c1` (stereo not drawn), the LD50 is listed as 5580 mg/kg.
In the case of `CN1CCCC(=C(c2cccs2)c2cccs2)C1`, the LD50 is listed as 10000 mg/kg.
For `ClCc1cccc2ccccc12`, the LD50 is given as 890 mg/kg.
